Biological target: T1, human TGR5 (Homo sapiens, UniProt Q8TDU6)
T1 construct: expressed in transfected cells; host or cells: HEK293
T1 sequence (Q8TDU6 1-330): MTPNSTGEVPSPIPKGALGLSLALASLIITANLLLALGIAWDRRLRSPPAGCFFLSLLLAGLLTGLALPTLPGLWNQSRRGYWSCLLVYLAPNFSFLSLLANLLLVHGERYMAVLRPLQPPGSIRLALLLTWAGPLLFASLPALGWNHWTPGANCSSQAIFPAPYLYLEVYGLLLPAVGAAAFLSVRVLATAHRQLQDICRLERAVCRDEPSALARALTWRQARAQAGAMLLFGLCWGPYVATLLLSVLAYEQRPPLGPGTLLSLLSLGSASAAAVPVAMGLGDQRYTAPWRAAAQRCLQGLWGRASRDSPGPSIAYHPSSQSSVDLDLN
Assay: Cell-based TGR5 assay (cAMP generation, HTRF)
Settings: HEK293 cells stably transfected with human TGR5; cAMP by HTRF; 30 minutes at 37° C.; read-out: pEC50 Human TGR5 (converted)
In short: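 Read-out was HTRF detection of cAMP, converted to concentration via a standard curve and fitted (3-parameter logistic) for pEC50 and maximal response. Agonist stimulation used HEK293 cells stably transfected with human TGR5, incubated 30 min at 37° C in IBMX-containing buffer at 0.05 nM to 10 μM compound.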

| EC50 [µM] | Compound |
| --- | --- |
| 0.126 to 1 | O=C1NCCN1CCN(CCCSc1ccc(Cl)c(CNC2(c3cnccc3-c3ccccc3OC3CC3)CC2)c1)C(=O)[C@@H](O)[C@@H](O)[C@H](O)[C@@H](O)CO [Compound I-531, (2S,3S,4R,5S)-N-[3-({4-chloro-3-[({1-[4-(2-cyclopropoxyphenyl)pyridin-3-yl]cyclopropyl}amino)methyl]phenyl}sulfanyl)propyl]-2,3,4,5,6-pentahydroxy-N-[2-(2-oxoimidazolidin-1-yl)ethyl]hexanamide] |
| < 0.1 | CS(=O)(=O)CCCN(CCCCSc1ccc(Cl)c(CNC2(c3cnccc3-c3ccccc3OC3CC3)CC2)c1)C(=O)[C@@H](O)[C@@H](O)[C@H](O)[C@@H](O)CO [Compound I-532, (2S,3S,4R,5S)-N-[4-({4-chloro-3-[({1-[4-(2-cyclopropoxyphenyl)pyridin-3-yl]cyclopropyl}amino)methyl]phenyl}sulfanyl)butyl]-2,3,4,5,6-pentahydroxy-N-(3-methanesulfonylpropyl) hexanamide] |
| < 0.1 | O=C([C@@H](O)[C@@H](O)[C@H](O)[C@@H](O)CO)N(CCCCSc1ccc(Cl)c(CNC2(c3cnccc3-c3ccccc3OC3CC3)CC2)c1)CCOCCO [Compound I-533, (2S,3S,4R,5S)-N-[4-({4-chloro-3-[({1-[4-(2-cyclopropoxyphenyl)pyridin-3-yl]cyclopropyl}amino)methyl]phenyl}sulfanyl)butyl]-2,3,4,5,6-pentahydroxy-N-[2-(2-hydroxyethoxy)ethyl]hexanamide] |
| < 0.1 | O=C([C@@H](O)[C@@H](O)[C@H](O)[C@@H](O)CO)N(CCCCO)CCCCSc1ccc(Cl)c(CNC2(c3cnccc3-c3ccccc3OC3CC3)CC2)c1 [Compound I-534, (2S,3S,4R,5S)-N-[4-({4-chloro-3-[({1-[4-(2-cyclopropoxyphenyl)pyridin-3-yl]cyclopropyl}amino)methyl]phenyl}sulfanyl)butyl]-2,3,4,5,6-pentahydroxy-N-(4-hydroxybutyl)hexanamide] |
| 0.126 to 1 | O=C([C@@H](O)[C@@H](O)[C@H](O)[C@@H](O)CO)N(CCCCSc1ccc(Cl)c(CNC2(c3cnccc3-c3ccccc3OC3CC3)CC2)c1)C1CCOCC1 [Compound I-535, (2S,3S,4R,5S)-N-[4-({4-chloro-3-[({1-[4-(2-cyclopropoxyphenyl)pyridin-3-yl]cyclopropyl}amino)methyl]phenyl}sulfanyl)butyl]-2,3,4,5,6-pentahydroxy-N-(oxan-4-yl)hexanamide] |
| 0.126 to 1 | O=C([C@@H](O)[C@@H](O)[C@H](O)[C@@H](O)CO)N(CCCCSc1ccc(Cl)c(CNC2(c3cnccc3-c3ccccc3OC3CC3)CC2)c1)CC1CCOCC1 [Compound I-536, (2S,3S,4R,5S)-N-[4-({4-chloro-3-[({1-[4-(2-cyclopropoxyphenyl)pyridin-3-yl]cyclopropyl}amino)methyl]phenyl}sulfanyl)butyl]-2,3,4,5,6-pentahydroxy-N-(oxan-4-ylmethyl)hexanamide] |
| 0.126 to 1 | Cc1ccc(SCCCN(CCCS(C)(=O)=O)C(=O)[C@@H](O)[C@@H](O)[C@H](O)[C@@H](O)CO)cc1COC1(c2cnccc2-c2ccccc2OC2CC2)CC1 [Compound I-537, (2S,3S,4R,5S)-N-(3-{[3-({1-[4-(2-cyclopropoxyphenyl)pyridin-3-yl]cyclopropoxy}methyl)-4-methylphenyl]sulfanyl}propyl)-2,3,4,5,6-pentahydroxy-N-(3-methanesulfonylpropyl) hexanamide] |
| 1.26 to 10 | Cc1ccc(SCCCN(CCOCCO)C(=O)[C@@H](O)[C@@H](O)[C@H](O)[C@@H](O)CO)cc1COC1(c2cnccc2-c2ccccc2OC2CC2)CC1 [Compound I-538, (2S,3S,4R,5S)-N-(3-{[3-({1-[4-(2-cyclopropoxyphenyl)pyridin-3-yl]cyclopropoxy}methyl)-4-methylphenyl]sulfanyl}propyl)-2,3,4,5,6-pentahydroxy-N-[2-(2-hydroxyethoxy)ethyl]hexanamide] |
| 0.126 to 1 | Cc1ccc(SCCCN(CCCCO)C(=O)[C@@H](O)[C@@H](O)[C@H](O)[C@@H](O)CO)cc1COC1(c2cnccc2-c2ccccc2OC2CC2)CC1 [Compound I-539, (2S,3S,4R,5S)-N-(3-{[3-({1-[4-(2-cyclopropoxyphenyl)pyridin-3-yl]cyclopropoxy}methyl)-4-methylphenyl]sulfanyl}propyl)-2,3,4,5,6-pentahydroxy-N-(4-hydroxybutyl)hexanamide] |
| 0.126 to 1 | Cc1ccc(SCCCN(C(=O)[C@@H](O)[C@@H](O)[C@H](O)[C@@H](O)CO)C2CCOCC2)cc1COC1(c2cnccc2-c2ccccc2OC2CC2)CC1 [Compound I-540, (2S,3S,4R,5S)-N-(3-{[3-({1-[4-(2-cyclopropoxyphenyl)pyridin-3-yl]cyclopropoxy}methyl)-4-methylphenyl]sulfanyl}propyl)-2,3,4,5,6-pentahydroxy-N-(oxan-4-yl)hexanamide] |
| 0.126 to 1 | Cc1ccc(SCCCCN(CCCCO)C(=O)[C@@H](O)[C@@H](O)[C@H](O)[C@@H](O)CO)cc1COC1(c2cnccc2-c2ccccc2OC2CC2)CC1 [Compound I-541, (2S,3S,4R,5S)-N-(4-{[3-({1-[4-(2-cyclopropoxyphenyl)pyridin-3-yl]cyclopropoxy}methyl)-4-methylphenyl]sulfanyl}butyl)-2,3,4,5,6-pentahydroxy-N-(4-hydroxybutyl)hexanamide] |
| 0.126 to 1 | O=C1NCCN1CCN(CCCSc1ccc(Cl)c(COC2(c3cnccc3-c3ccccc3OC3CC3)CC2)c1)C(=O)[C@@H](O)[C@@H](O)[C@H](O)[C@@H](O)CO [Compound I-543, (2S,3S,4R,5S)-N-(3-{[4-chloro-3-({1-[4-(2-cyclopropoxyphenyl)pyridin-3-yl]cyclopropoxy}methyl)phenyl]sulfanyl}propyl)-2,3,4,5,6-pentahydroxy-N-[2-(2-oxoimidazolidin-1-yl)ethyl]hexanamide] |

The remaining lines, values behind:

| Compound | EC50 [µM] |
| --- | --- |
| CN(CCSc1ccc(Cl)c(CNC2(c3cnccc3-c3ccccc3OC3CC3)CC2)c1)C(=O)[C@@H](O)[C@@H](O)[C@H](O)[C@@H](O)CO [Compound I-542, (2S,3S,4R,5S)-N-[2-({4-chloro-3-[({1-[4-(2-cyclopropoxyphenyl)pyridin-3-yl]cyclopropyl}amino)methyl]phenyl}sulfanyl)ethyl]-2,3,4,5,6-pentahydroxy-N-methylhexanamide] | < 0.1 |
| Cc1ccc(SCCCN(CCCS(C)(=O)=O)C(=O)[C@@H](O)[C@@H](O)[C@H](O)[C@@H](O)CO)cc1CNC1(c2cnccc2-c2ccccc2OC2CC2)CC1 [Compound I-544, (2S,3S,4R,5S)-N-[3-({3-[({1-[4-(2-cyclopropoxyphenyl)pyridin-3-yl]cyclopropyl}amino)methyl]-4-methylphenyl}sulfanyl)propyl]-2,3,4,5,6-pentahydroxy-N-(3-methanesulfonylpropyl) hexanamide] | 0.126 to 1 |
| Cc1ccc(SCCCN(CCOCCO)C(=O)[C@@H](O)[C@@H](O)[C@H](O)[C@@H](O)CO)cc1CNC1(c2cnccc2-c2ccccc2OC2CC2)CC1 [Compound I-545, (2S,3S,4R,5S)-N-[3-({3-[({1-[4-(2-cyclopropoxyphenyl)pyridin-3-yl]cyclopropyl}amino)methyl]-4-methylphenyl}sulfanyl)propyl]-2,3,4,5,6-pentahydroxy-N-[2-(2-hydroxyethoxy)ethyl]hexanamide] | 0.126 to 1 |
| Cc1ccc(SCCCN(CCCCO)C(=O)[C@@H](O)[C@@H](O)[C@H](O)[C@@H](O)CO)cc1CNC1(c2cnccc2-c2ccccc2OC2CC2)CC1 [Compound I-546, (2S,3S,4R,5S)-N-[3-({3-[({1-[4-(2-cyclopropoxyphenyl)pyridin-3-yl]cyclopropyl}amino)methyl]-4-methylphenyl}sulfanyl)propyl]-2,3,4,5,6-pentahydroxy-N-(4-hydroxybutyl) hexanamide] | 0.126 to 1 |
| Cc1ccc(SCCCN(C(=O)[C@@H](O)[C@@H](O)[C@H](O)[C@@H](O)CO)C2CCOCC2)cc1CNC1(c2cnccc2-c2ccccc2OC2CC2)CC1 [Compound I-547, (2S,3S,4R,5S)-N-[3-({3-[({1-[4-(2-cyclopropoxyphenyl)pyridin-3-yl]cyclopropyl}amino)methyl]-4-methylphenyl}sulfanyl)propyl]-2,3,4,5,6-pentahydroxy-N-(oxan-4-yl)hexanamide] | 1.26 to 10 |
| Cc1ccc(SCCCCN(CCCS(C)(=O)=O)C(=O)[C@@H](O)[C@@H](O)[C@H](O)[C@@H](O)CO)cc1CNC1(c2cnccc2-c2ccccc2OC2CC2)CC1 [Compound I-548, (2S,3S,4R,5S)-N-[4-({3-[({1-[4-(2-cyclopropoxyphenyl)pyridin-3-yl]cyclopropyl}amino)methyl]-4-methylphenyl}sulfanyl)butyl]-2,3,4,5,6-pentahydroxy-N-(3-methanesulfonylpropyl) hexanamide] | 0.126 to 1 |
| Cc1ccc(SCCCCN(CCOCCO)C(=O)[C@@H](O)[C@@H](O)[C@H](O)[C@@H](O)CO)cc1CNC1(c2cnccc2-c2ccccc2OC2CC2)CC1 [Compound I-549, (2S,3S,4R,5S)-N-[4-({3-[({1-[4-(2-cyclopropoxyphenyl)pyridin-3-yl]cyclopropyl}amino)methyl]-4-methylphenyl}sulfanyl)butyl]-2,3,4,5,6-pentahydroxy-N-[2-(2-hydroxyethoxy)ethyl]hexanamide] | < 0.1 |
| Cc1ccc(SCCCCN(CCCCO)C(=O)[C@@H](O)[C@@H](O)[C@H](O)[C@@H](O)CO)cc1CNC1(c2cnccc2-c2ccccc2OC2CC2)CC1 [Compound I-550, (2S,3S,4R,5S)-N-[4-({3-[({1-[4-(2-cyclopropoxyphenyl)pyridin-3-yl]cyclopropyl}amino)methyl]-4-methylphenyl}sulfanyl)butyl]-2,3,4,5,6-pentahydroxy-N-(4-hydroxybutyl)hexanamide] | 0.126 to 1 |
